Test results taken from patent US6794386B2, “β-amino acid compounds as integrin antagonists” (Bayer Aktiengesellschaft, priority 2000, dated 2004).

Target: T1, VLA-4 (Homo sapiens, UniProt P05556+P13612)
T1 construct: host or cells: Jurkat clone E6-1
Experiment: Adhesion of Jurkat cells to immobilized VCAM-1 (domains 1-3)
Assay type: cell-based
Design: scale not given here
Conditions: adhesion of CFSE-labeled Jurkat cells to recombinant human VCAM-1 (domains 1-3) coated plates; compounds as yielded by solid phase synthesis, purity about 40-90%
Description: In Vitro Assay: Adhesion of Jurkat Cells to Immobilized VCAM-1 (Domains 1-3).
Preparation of Fluorescence Labeled Jurkat Cells:
Jurkat cells (American Type Culture Collection, Clone E6-1, ATCC TIB-152) were cultured in RPMI 1640 medium (Nikken Bio Medical Laboratory, CM1101) supplemented with 10% fetal bovine serum (Hyclone, A-1119-L), 100 U/ml penicilin (Gibco BRL, 15140-122) and 100 μg/ml streptomycin (Gibco BRL, 15140-122) in a humidified incubator at 37° C. with 5% CO2.
Jurkat cells were incubated with phosphate balanced solution (PBS, Nissui, 05913) containing 25 μM of 5(-and-6)-carboxyfluorescein diacetate, succinimidyle ester (CFSE, Dojindo Laboratories, 345-06441) for 20 min at room temperature while gently swirling every 5 min. After centrifugation at 1000 rpm for 5 min, the cell pellet was resuspended with adhesion assay buffer at a cell density of 2×10^6 cells/ml. The adhesion assay buffer was composed of 24 mM Tris-HCl (pH 7.4), 137 mM NaCl, 27 mM KCl, 4 mM glucose, 0.1% bovine serum albumin (BSA, Sigma, A9647) and 2 mM MnCl2.
Preparation of VCAM-1 (Extracellular Domains 1-3):
Complementary DNA (cDNA) encoding 7-domain form of VCAM-1 (GenBank accession #M60335) was obtained using Rapid-Screen™ cDNA library panels (OriGene Technologies, Inc) at Takara Gene Analysis Center (Shiga, Japan). The primers used were 5′-CCAAGGCAGAGTACGCAAAC-3′ (sence) and 5′-TGGCAGGTATTATTAAGGAG-3′ (antisense). PCR amplification of the 3-domain VCAM-1 cDNA was perform using Pfu DNA polymerase (Stratagene) with the following sets of primers: (U-VCAMd1-3) 5′-CCATATGGTACCTGATCAATTTAAAATCGAGACCACCCCAGAA-3′; (L-VCAMd1-3) 5′-CCATATAGCAATCCTAGGTCCAGGGGAGATCTCAACAGTAAA-3′. PCR cycle was 94° C. for 45 sec, 55° C. for 45 sec, 72° C. for 2 min, repeating 15 cycles. After the purification of the PCR product, the fragment was digested with KpnI-AvrII. The digested fragment was ligated into pBluescript IISK(−) (Strategene), which was linealized by digesting with KpnI-XhoI. The ligation was followed by transformation to a Dam/Dcm methylase-free E. coli strain SCS110 (Strategene) to create the donor plasmid pH7. To direct VCAM-1 molecule into the insect cell secretory pathway, the VCAM-1 coding sequence was fused to signal peptide sequence of honeybee melittin. The resulting melittin-VCAM fusion was placed in correct orientation to the baculoviris polyhedrin promoter. Baculovirus transfer vector containing first 3-domain form VCAM-1 (pH10) was constructed by ligation of 0.9 kb fragment from AvrII/Klenow/BclI digests of pH7 into SalI/Klenow/BamHI digests of pMelBacB (Invitrogen). Recombinant baculovirus was generated by using Bac-N-Blue™ Transfection kit (Invitrogen) according to the manufacture's instruction. The recombinant virus was amplified by infection to High-Five™ insect cells for 5-6 days, and virus titer was determined by plaque assay.
High-Five™ insect cells were pelleted in a 225 ml conical tube by centrifugation at 1000 rpm for 5 min After discarding the supernatant, the pellet was resuspended in 1.5×10^9 pfu (MOI=5) of high-titer virus solution, followed by incubation for 1.5 hours at room temperature. The cells were pelleted again and washed once in fresh Express Five™ serum free medium. The cells were pelleted again and finally, resuspended in 200 ml of fresh Express Five™ medium, transferred to a 1,000 ml shaker flask, and incubated in a shaker at 27° C., 130 rpm, for 48 hours before the culture supernatant was collected. The purification of 3-domain form of VCAM-1 from the culture supernatant was performed by one-step anion exchange chromatography. Protein concentration was determined by using Coomassie protein assay reagent (Pierce) according to the manufacture's instruction.
Preparation of Microtiter Plates:
Recombinant human VCAM-1 (extracellular domains 1-3) was dissolved at 0.5 μg/ml in PBS. […]

T1 sequence (P13612 34-1032): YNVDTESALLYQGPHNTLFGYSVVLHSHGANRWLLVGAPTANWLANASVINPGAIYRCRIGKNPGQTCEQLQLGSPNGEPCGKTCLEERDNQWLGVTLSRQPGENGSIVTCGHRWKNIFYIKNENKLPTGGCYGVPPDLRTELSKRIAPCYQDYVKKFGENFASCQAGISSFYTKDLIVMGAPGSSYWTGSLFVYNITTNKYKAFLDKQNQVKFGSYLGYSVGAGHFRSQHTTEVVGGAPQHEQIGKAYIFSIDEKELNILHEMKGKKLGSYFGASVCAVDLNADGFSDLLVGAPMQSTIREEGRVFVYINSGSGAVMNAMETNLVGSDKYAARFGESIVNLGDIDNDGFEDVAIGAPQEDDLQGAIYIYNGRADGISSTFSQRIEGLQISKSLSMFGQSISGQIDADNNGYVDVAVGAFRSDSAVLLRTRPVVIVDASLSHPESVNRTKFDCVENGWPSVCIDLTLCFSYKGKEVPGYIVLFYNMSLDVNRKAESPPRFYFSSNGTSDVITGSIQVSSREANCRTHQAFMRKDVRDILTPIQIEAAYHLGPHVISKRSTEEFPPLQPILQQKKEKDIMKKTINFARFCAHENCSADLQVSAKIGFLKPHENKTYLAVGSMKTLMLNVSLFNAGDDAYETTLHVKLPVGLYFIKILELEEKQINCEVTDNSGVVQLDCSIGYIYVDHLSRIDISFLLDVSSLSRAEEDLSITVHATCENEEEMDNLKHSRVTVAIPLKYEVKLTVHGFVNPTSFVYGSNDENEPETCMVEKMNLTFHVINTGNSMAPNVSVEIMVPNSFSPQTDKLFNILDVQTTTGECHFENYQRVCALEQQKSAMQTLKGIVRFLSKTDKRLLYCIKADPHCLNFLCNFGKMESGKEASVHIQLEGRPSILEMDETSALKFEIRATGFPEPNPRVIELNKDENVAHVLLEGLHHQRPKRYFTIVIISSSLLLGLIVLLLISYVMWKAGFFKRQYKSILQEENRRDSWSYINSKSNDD
T1 sequence (P05556 21-798): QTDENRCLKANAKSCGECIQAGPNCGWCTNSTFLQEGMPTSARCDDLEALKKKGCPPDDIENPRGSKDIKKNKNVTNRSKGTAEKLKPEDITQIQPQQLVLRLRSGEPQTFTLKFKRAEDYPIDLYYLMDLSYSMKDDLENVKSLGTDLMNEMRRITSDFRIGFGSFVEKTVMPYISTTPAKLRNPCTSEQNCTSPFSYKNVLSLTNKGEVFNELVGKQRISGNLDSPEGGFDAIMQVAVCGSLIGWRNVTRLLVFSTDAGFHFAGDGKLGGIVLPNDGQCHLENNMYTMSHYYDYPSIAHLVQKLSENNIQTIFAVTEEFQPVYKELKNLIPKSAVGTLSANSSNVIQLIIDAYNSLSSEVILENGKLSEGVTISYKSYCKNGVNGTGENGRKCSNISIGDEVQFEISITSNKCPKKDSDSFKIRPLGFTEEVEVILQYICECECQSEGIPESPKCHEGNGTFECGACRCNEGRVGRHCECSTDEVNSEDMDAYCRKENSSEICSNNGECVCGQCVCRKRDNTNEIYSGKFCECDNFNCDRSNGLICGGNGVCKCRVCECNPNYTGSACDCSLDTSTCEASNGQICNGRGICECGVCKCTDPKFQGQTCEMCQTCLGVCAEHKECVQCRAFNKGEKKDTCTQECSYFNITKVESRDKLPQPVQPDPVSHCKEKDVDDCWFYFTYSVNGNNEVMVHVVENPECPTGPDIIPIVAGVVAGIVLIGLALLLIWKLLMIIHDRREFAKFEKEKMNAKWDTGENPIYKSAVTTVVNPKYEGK

Row | SMILES | IC50
1 | Cc1ccccc1-c1ccc(C[C@H](NC(=O)C2CCCN(S(=O)(=O)c3ccccc3C(F)(F)F)C2)C(=O)O)cc1 (some centres unmarked) [Example 1.89] | C-D
2 | COc1ccc(Cl)cc1S(=O)(=O)N1CCCC(C(=O)N[C@@H](Cc2ccc(-c3ccccc3C)cc2)C(=O)O)C1 (some centres unmarked) [Example 1.90] | C-D
3 | Cc1ccccc1-c1ccc(C[C@H](NC(=O)C2CCCN(S(=O)(=O)Cc3ccccc3)C2)C(=O)O)cc1 (some centres unmarked) [Example 1.91] | C-D
4 | Cc1ccccc1-c1ccc(C[C@H](NC(=O)C2CCCN(S(=O)(=O)c3cc(Cl)cc(Cl)c3)C2)C(=O)O)cc1 (some centres unmarked) [Example 1.92] | C-D
5 | CC1(C)C2CCC1(CS(=O)(=O)N1CCCC(C(=O)N[C@@H](Cc3ccc(-c4ccc(Cl)cc4Cl)cc3)C(=O)O)C1)C(=O)C2 (some centres unmarked) [Example 1.93] | C-D
6 | Cc1ccc(S(=O)(=O)N2CCCC(C(=O)N[C@@H](Cc3ccc(-c4ccc(Cl)cc4Cl)cc3)C(=O)O)C2)cc1 (some centres unmarked) [Example 1.94] | C-D
7 | COC(=O)c1ccccc1S(=O)(=O)N1CCCC(C(=O)N[C@@H](Cc2ccc(-c3ccc(Cl)cc3Cl)cc2)C(=O)O)C1 (some centres unmarked) [Example 1.95] | C-D
8 | O=C(N[C@@H](Cc1ccc(-c2ccc(Cl)cc2Cl)cc1)C(=O)O)C1CCCN(S(=O)(=O)c2ccc3ccccc3c2)C1 (some centres unmarked) [Example 1.96] | C-D
9 | O=C(N[C@@H](Cc1ccc(-c2ccc(Cl)cc2Cl)cc1)C(=O)O)C1CCCN(S(=O)(=O)c2ccccc2C(F)(F)F)C1 (some centres unmarked) [Example 1.99] | C-D
10 | COc1ccc(Cl)cc1S(=O)(=O)N1CCCC(C(=O)N[C@@H](Cc2ccc(-c3ccc(Cl)cc3Cl)cc2)C(=O)O)C1 (some centres unmarked) [Example 1.100] | C-D
11 | O=C(N[C@@H](Cc1ccc(-c2ccc(Cl)cc2Cl)cc1)C(=O)O)C1CCCN(S(=O)(=O)Cc2ccccc2)C1 (some centres unmarked) [Example 1.101] | C-D
12 | O=C(N[C@@H](Cc1ccc(-c2ccc(Cl)cc2Cl)cc1)C(=O)O)C1CCCN(S(=O)(=O)c2cc(Cl)cc(Cl)c2)C1 (some centres unmarked) [Example 1.102] | C-D
13 | CC1(C)C2CCC1(CS(=O)(=O)N1CCCC(C(=O)N[C@@H](Cc3ccc(-c4cc(Cl)ccc4Cl)cc3)C(=O)O)C1)C(=O)C2 (some centres unmarked) [Example 1.103] | C-D
14 | COC(=O)c1ccccc1S(=O)(=O)N1CCCC(C(=O)N[C@@H](Cc2ccc(-c3cc(Cl)ccc3Cl)cc2)C(=O)O)C1 (some centres unmarked) [Example 1.105] | C-D
15 | O=C(N[C@@H](Cc1ccc(-c2cc(Cl)ccc2Cl)cc1)C(=O)O)C1CCCN(S(=O)(=O)c2ccc3ccccc3c2)C1 (some centres unmarked) [Example 1.106] | C-D
16 | O=C(N[C@@H](Cc1ccc(-c2cc(Cl)ccc2Cl)cc1)C(=O)O)C1CCCN(S(=O)(=O)c2c(Cl)cccc2Cl)C1 (some centres unmarked) [Example 1.107] | C-D

Row | SMILES | IC50
17 | COc1ccc(S(=O)(=O)N2CCCC(C(=O)N[C@@H](Cc3ccc(-c4cc(Cl)ccc4Cl)cc3)C(=O)O)C2)cc1OC (some centres unmarked) [Example 1.108] | C-D
18 | O=C(N[C@@H](Cc1ccc(-c2cc(Cl)ccc2Cl)cc1)C(=O)O)C1CCCN(S(=O)(=O)c2ccccc2C(F)(F)F)C1 (some centres unmarked) [Example 1.109] | C-D
19 | COc1ccc(Cl)cc1S(=O)(=O)N1CCCC(C(=O)N[C@@H](Cc2ccc(-c3cc(Cl)ccc3Cl)cc2)C(=O)O)C1 (some centres unmarked) [Example 1.110] | C-D
20 | O=C(N[C@@H](Cc1ccc(-c2cc(Cl)ccc2Cl)cc1)C(=O)O)C1CCCN(S(=O)(=O)c2cc(Cl)cc(Cl)c2)C1 (some centres unmarked) [Example 1.111] | C-D
21 | Cc1ccc(-c2ccc(C[C@H](NC(=O)C3CCCN(c4ncnc(NC5CCCCC5)c4F)C3)C(=O)O)cc2)cc1 (some centres unmarked) [Example 2.5] | C-D
22 | Cc1ccc(-c2ccc(C[C@H](NC(=O)C3CCCN(c4ncnc(N5CCCCC5)c4F)C3)C(=O)O)cc2)cc1 (some centres unmarked) [Example 2.6] | C-D
23 | Cc1ccc(-c2ccc(C[C@H](NC(=O)C3CCCN(c4ncnc(N5CCOCC5)c4F)C3)C(=O)O)cc2)cc1 (some centres unmarked) [Example 2.7] | C-D
24 | Cc1ccc(-c2ccc(C[C@H](NC(=O)C3CCCN(c4ncnc(N(C)Cc5ccccc5)c4F)C3)C(=O)O)cc2)cc1 (some centres unmarked) [Example 2.8] | C-D
25 | Cc1ccc(-c2ccc(C[C@H](NC(=O)C3CCCN(c4ncnc(N5CCNCC5)c4F)C3)C(=O)O)cc2)cc1 (some centres unmarked) [Example 2.9] | B-C
26 | CCCNc1ncnc(N2CCCC(C(=O)N[C@@H](Cc3ccc(-c4ccc(C)cc4)cc3)C(=O)O)C2)c1F (some centres unmarked) [Example 2.10] | C-D
27 | Cc1ccc(-c2ccc(C[C@H](NC(=O)C3CCCN(c4ncnc(NC5Cc6ccccc6C5)c4F)C3)C(=O)O)cc2)cc1 (some centres unmarked) [Example 2.11] | C-D
28 | Cc1ccc(-c2ccc(C[C@H](NC(=O)C3CCCN(c4ncnc(NCCN5CCCC5)c4F)C3)C(=O)O)cc2)cc1 (some centres unmarked) [Example 2.12] | C-D
29 | CCCCN(C)c1ncnc(N2CCCC(C(=O)N[C@@H](Cc3ccc(-c4ccc(C)cc4)cc3)C(=O)O)C2)c1F (some centres unmarked) [Example 2.13] | C-D
30 | COc1ccc(-c2ccc(C[C@H](NC(=O)C3CCCN(c4ncnc(NCc5ccccn5)c4F)C3)C(=O)O)cc2)cc1 (some centres unmarked) [Example 2.14] | C-D
31 | COc1ccc(-c2ccc(C[C@H](NC(=O)C3CCCN(c4ncnc(NC5CCCCC5)c4F)C3)C(=O)O)cc2)cc1 (some centres unmarked) [Example 2.15] | C-D

Same assay, conditions: adhesion of CFSE-labeled Jurkat cells to recombinant human VCAM-1 (domains 1-3) coated plates; compounds as yielded by solid phase synthesis, purity about 40-90%; read-out: IC50

Row | SMILES | IC50
32 | COC(=O)c1ccccc1S(=O)(=O)N1CCCC(C(=O)N[C@@H](Cc2ccc(-c3ccccc3C)cc2)C(=O)O)C1 (some centres unmarked) [Example 1.86] | 2 to 10 µM
33 | Cc1ccccc1-c1ccc(C[C@H](NC(=O)C2CCCN(S(=O)(=O)c3ccc4ccccc4c3)C2)C(=O)O)cc1 (some centres unmarked) [Example 1.87] | 0.5 to 2 µM
34 | COc1ccc(S(=O)(=O)N2CCCC(C(=O)N[C@@H](Cc3ccc(-c4ccccc4C)cc3)C(=O)O)C2)cc1OC (some centres unmarked) [Example 1.88] | 2 to 10 µM
35 | O=C(N[C@@H](Cc1ccc(-c2ccc(Cl)cc2Cl)cc1)C(=O)O)C1CCCN(S(=O)(=O)c2c(Cl)cccc2Cl)C1 (some centres unmarked) [Example 1.97] | 2 to 10 µM
36 | COc1ccc(S(=O)(=O)N2CCCC(C(=O)N[C@@H](Cc3ccc(-c4ccc(Cl)cc4Cl)cc3)C(=O)O)C2)cc1OC (some centres unmarked) [Example 1.98] | 2 to 10 µM
37 | Cc1ccc(S(=O)(=O)N2CCCC(C(=O)N[C@@H](Cc3ccc(-c4cc(Cl)ccc4Cl)cc3)C(=O)O)C2)cc1 (some centres unmarked) [Example 1.104] | ≤ 0.5 µM
38 | O=C(N[C@@H](Cc1ccc(-c2cc(Cl)ccc2Cl)cc1)C(=O)O)C1CCCN(c2ncnc(NCc3ccccn3)c2F)C1 (some centres unmarked) [Example 2.1] | ≤ 0.5 µM
39 | O=C(N[C@@H](Cc1ccc(-c2cc(Cl)ccc2Cl)cc1)C(=O)O)C1CCCN(c2ncnc(N3CCNCC3)c2F)C1 (stereo partly drawn) [Example 2.2, (2S)-3-(2′,5′-dichloro[1,1′-biphenyl]-4-yl)-2-[({1-[5-fluoro-6-(1-piperazinyl)-4-pyrimidinyl]-3-piperidinyl}carbonyl)amino]propanoic acid] | ≤ 0.5 µM
40 | O=C(N[C@@H](Cc1ccc(-c2cc(Cl)ccc2Cl)cc1)C(=O)O)C1CCCN(c2ncnc(N3CCOCC3)c2F)C1 (stereo partly drawn) [Example 2.3, (2S)-3-(2′,5′-dichloro[1,1′-biphenyl]-4-yl)-2-[({1-[5-fluoro-6-(4-morpholinyl)-4-pyrimidinyl]-3-piperidinyl}carbonyl)amino]propanoic acid] | ≤ 0.5 µM
41 | Cc1ccc(-c2ccc(C[C@H](NC(=O)C3CCCN(c4ncnc(NCc5ccccn5)c4F)C3)C(=O)O)cc2)cc1 (some centres unmarked) [Example 2.4] | 2 to 10 µM
